Paper PMC5131915, “Platinum(II) Iodido Complexes of 7-Azaindoles with Significant Antiproliferative Effects: An Old Story Revisited with Unexpected Outcomes” (PLoS ONE, 2016)
Where two headings read alike, the source gives them in different places.

What was measured:
[1] = system: MCF7 breast carcinoma cells; test: In vitro cytotoxicity testing (MTT assay), MCF7; type: cell-based, human; settings: 24 h drug exposure, no recovery, read-out: IC50±SD, MCF7
Method: A2780 ovarian carcinoma, A2780R cisplatin-resistant ovarian carcinoma, HOS osteosarcoma, G361 malignant melanoma, MCF7 breast carcinoma, A549 lung carcinoma, HeLa cervix carcinoma, 22Rv1 prostate carcinoma and Caco-2 colorectal carcinoma human cancer cell lines were purchased from the European Collection of Cell Cultures (ECACC), while the human non-cancerous hepatocytes (Hep) were supplied by Biopredic Intl. The cell lines were cultured, according to the suppliers`instructions, in RPMI-1640 medium supplemented with 10% of fetal calf serum, 1% of 2 mM glutamine, and 1% penicillin/streptomycin. All cell lines were grown as adherent monolayers at 37°C and 5% CO2 in a humidified atmosphere.
The cells were seeded to 96-well culture plates, pre-incubated in drug-free media at 37°C for 24 h and treated typically with the 0.01–50.0 μM solutions, prepared from the stock solutions by dilution with medium, for 24 h at 37°C. […] In parallel with compounds 1–8 and the reference drugs, the cells were also treated with vehicle (0.1% DMF in medium; negative control) and Triton X-100 (1%; positive control) to assess the minimal and maximal cell damage, respectively. The MTT assay was used to determine the cell viability; MTT = 3-(4,5-dimethylthiazol-2-yl)-2,5-diphenyltetrazolium bromide. A concentration of the formed dye was evaluated spectrophotometrically at 540 nm (TECAN, Schoeller Instruments LLC).
(§1) The data were expressed as the percentage of viability, where 100% and 0% represents the treatments with negative and positive controls, respectively. The data from the cancer cells were acquired from three independent experiments (conducted in triplicate) using cells from different passages. The resulting IC50 values (μM) were calculated from viability curves and the results are presented as arithmetic mean±SD.

[2] = system: A2780 ovarian carcinoma cells; test: In vitro cytotoxicity testing (MTT assay), A2780; type: cell-based, human
Method: All cell lines were grown as adherent monolayers at 37°C and 5% CO2 in a humidified atmosphere.
The MTT assay was used to determine the cell viability; MTT = 3-(4,5-dimethylthiazol-2-yl)-2,5-diphenyltetrazolium bromide. A concentration of the formed dye was evaluated spectrophotometrically at 540 nm (TECAN, Schoeller Instruments LLC).
as §1

A2780 cells [3] = test: Cellular accumulation of platinum (ICP-MS); type: cell-based, human; settings: 24 h treatment at IC50 concentration
Method: The A2780 cells were seeded in 6-well culture plates (1×10^6 cells per well) and incubated overnight (37°C and 5% CO2 in a humidified incubator). […] The cells were washed with PBS (2 × 2 mL) after 24 h treatment, harvested by trypsin treatment, collected and centrifuged in PBS. The supernatants were discarded after centrifugation and pellets were digested in 500 μL of nitric acid (3 min at 150°C) using a microwave system Monowave300 (Anton Paar). Solutions were diluted with 4.5 mL of water and the platinum content was determined by ICP-MS. The obtained values were corrected for adsorption effects. The experiments were conducted in triplicate and the results are presented as arithmetic mean±SD.

MCF7 cells = test: Cell cycle analysis (PI/RNase, flow cytometry), MCF7; type: cell-based, human; settings: MCF7, 24 h, IC50 concentration
Method: (§2) The A2780 and MCF7 cells (1.0 × 10^6 per well) were pre-incubated in a six-well plate for 24 h as described above. […] After 24 h, floating cells were collected and attached cells were harvested using trypsin/EDTA in PBS. Total cells were washed twice with PBS and fixed in 70% ethanol. Cells were re-suspended in PBS and DNA staining was achieved by a solution of propidium iodide (PI) supplemented with RNase A (30 min, 25°C, in the dark). […] The data were analysed using CytExpert™ software (Beckman Coulter).

A2780 cells [4] = test: Cell cycle analysis (PI/RNase, flow cytometry), A2780; type: cell-based, human; settings: A2780, 24 h, IC50 concentration
Method: as §2

calf thymus DNA (ctDNA) = test: Fluorescence quenching experiments on the EtBr/ctDNA system; type: binding; settings: for Stern-Volmer quenching constant KSV: TRIS/NaCl buffer pH 7.2; for apparent binding constant Kapp: estimated from Q50
Method: A volume of 405 μL of 154 μM ctDNA and 10 μL of 3 mM EtBr were mixed together in TRIS/NaCl buffer (pH = 7.2) and incubated for 30 min at ambient temperature. […] The mixtures were incubated at ambient temperature for next 15 min. The maxima of the emitted fluorescence of EtBr/ctDNA system have been observed at 613 nm (using the 546 nm excitation wavelength) and the intensity of fluorescence was recorded on a AvaSpec HS1024x122TE fluorescence spectrometer using a 1 cm quartz cell. […] Due to the indirect nature of the fluorescence quenching method, the value of KSV can be used for the estimation of the apparent binding constant Kapp of the complex by using the equation KEB [EtBr] = Kapp [Q50], where [Q50] is the concentration of the complex causing the 50% reduction in the intensity of fluorescence of the EtBr/DNA supramolecular complex, KEB = 1.0 × 10^6 M^−1 and [EtBr] = 10 μM [27].

[5] = 24 h drug exposure, no recovery, MTT, read-out: IC50±SD, A2780

| SMILES | IC50 [1] [nM] | IC50 ([2]; 6 h exposure, read-out: IC50, A2780, time-dependent cytotoxicity) [nM] | IC50 [2, 5] [nM] | IC50 ([2]; 48 h exposure, read-out: IC50, A2780, time-dependent cytotoxicity) [nM] | cellular accumulation (A2780 cells [3]) [pmol Pt/10^6 A2780 cells] | G0/G1 population (MCF7 cells) [%] | G2/M population (MCF7 cells) [%] | S population (MCF7 cells) [%] | sub-G1 population (MCF7 cells) [%] | G0/G1 population (A2780 cells [4]) [%] | G2/M population (A2780 cells [4]) [%] | S population (A2780 cells [4]) [%] | sub-G1 population (A2780 cells [4]) [%] | Stern-Volmer quenching constant KSV (calf thymus DNA (ctDNA)) | apparent binding constant Kapp (calf thymus DNA (ctDNA)) |
| --- | --- | --- | --- | --- | --- | --- | --- | --- | --- | --- | --- | --- | --- | --- | --- |
| Brc1cc[n+]([Pt-2]([I])([I])[n+]2ccc(Br)c3cc[nH]c32)c2[nH]ccc12 [Complex 6, cis-[Pt(4Braza)2I2]] | 1000 ± 400 | 8200 ± 500 | 3200 ± 200 | 400 ± 100 | 598±97 | 73.9±4.6 | 16.6±2.1 | 7.2±1.6 | 1.5±0.4 | 51.5±3.2 | 26.3±1.6 | 17.5±0.9 | 4.3±1.4 | 7.4 × 10^3 M^–1 | 7.8 × 10^4 M^–1 |
| N.N.[Cl][Pt][Cl] [Cisplatin, cisplatin, reference compound] | 17900 ± 3500 |  |  |  | 535±16 | 33.4±2.8 | 38.2±1.9 | 26.3±1.9 | 1.6±0.2 | 23.7±1.5 | 23.0±2.2 | 50.6±2.8 | 2.0±0.2 | 4.7 × 10^3 M^–1 | 4.8 × 10^4 M^–1 |
| Cc1cc2c(Cl)cc[n+]([Pt-2]([I])([I])[n+]3ccc(Cl)c4cc(C)[nH]c43)c2[nH]1 [Complex 8, cis-[PtI2(2Me4Claza)2]] | 2100 ± 1000 |  | 1700 ± 300 |  |  | 64.5±3.3 | 25.4±2.6 | 8.9±2.1 | 1.2±0.4 | 55.2±2.2 | 23.9±2.3 | 18.3±1.3 | 2.2±0.4 | 1.4 × 10^4 M^–1 | 1.2 × 10^5 M^–1 |
